Laboratory results taken from ChEMBL document CHEMBL5303764, “Data for DCP probe BI-3812” (2023).

Key:
[1] = molecular target: Kappa-type opioid receptor (Homo sapiens) (UniProt P41145); assay: KAPPA(KOP)_HU Eurofins SafetyScreen44 (BI); conditions: Compound concentration 10.0 uM
[2] = molecular target: 5-hydroxytryptamine receptor 1B (Homo sapiens) (UniProt P28222); assay: 5HT1B(H) Eurofins SafetyScreen44 (BI); conditions: filed as antagonist, Compound concentration 10.0 uM
[3] = molecular target: Mitogen-activated protein kinase kinase kinase 8 (Homo sapiens) (UniProt P41279); assay: MAP3K8 Invitrogen Lab (UK) kinase screen (BI); conditions: Compound concentration 1.0 uM
Chain of Mitogen-activated protein kinase kinase kinase 8 (Homo sapiens) (P41279 whole entry): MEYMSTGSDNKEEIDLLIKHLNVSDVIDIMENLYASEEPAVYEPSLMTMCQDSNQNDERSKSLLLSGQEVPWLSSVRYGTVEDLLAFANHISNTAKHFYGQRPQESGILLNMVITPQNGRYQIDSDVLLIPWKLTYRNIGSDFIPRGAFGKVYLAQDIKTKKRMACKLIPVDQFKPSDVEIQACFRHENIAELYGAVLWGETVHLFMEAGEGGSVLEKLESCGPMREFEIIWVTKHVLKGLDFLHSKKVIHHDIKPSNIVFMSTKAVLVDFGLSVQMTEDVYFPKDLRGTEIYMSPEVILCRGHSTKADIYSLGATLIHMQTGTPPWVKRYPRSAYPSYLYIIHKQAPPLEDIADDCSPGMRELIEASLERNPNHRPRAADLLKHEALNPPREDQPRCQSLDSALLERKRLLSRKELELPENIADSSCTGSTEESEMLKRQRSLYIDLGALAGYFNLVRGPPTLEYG

[4] = molecular target: Dual specificity mitogen-activated protein kinase kinase 2 (Homo sapiens) (UniProt P36507); assay: MAP2K2 Invitrogen Lab (UK) kinase screen (BI); conditions: Compound concentration 1.0 uM
Chain of Dual specificity mitogen-activated protein kinase kinase 2 (Homo sapiens) (P36507 whole entry): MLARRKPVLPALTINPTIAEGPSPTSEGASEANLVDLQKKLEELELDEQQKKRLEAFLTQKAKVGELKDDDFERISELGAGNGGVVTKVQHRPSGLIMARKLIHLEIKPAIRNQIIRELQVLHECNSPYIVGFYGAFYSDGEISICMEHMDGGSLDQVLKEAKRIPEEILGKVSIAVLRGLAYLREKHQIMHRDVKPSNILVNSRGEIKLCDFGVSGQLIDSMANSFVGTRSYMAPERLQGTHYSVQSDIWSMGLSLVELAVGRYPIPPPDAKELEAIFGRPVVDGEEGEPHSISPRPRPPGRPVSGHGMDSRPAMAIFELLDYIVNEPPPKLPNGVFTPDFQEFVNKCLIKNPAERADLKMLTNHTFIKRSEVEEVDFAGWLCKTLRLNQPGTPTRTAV

[5] = molecular target: Beta-1 adrenergic receptor (Homo sapiens) (UniProt P08588); conditions: Compound concentration 10.0 uM
Chain of Beta-1 adrenergic receptor (Homo sapiens) (P08588 whole entry, looked up): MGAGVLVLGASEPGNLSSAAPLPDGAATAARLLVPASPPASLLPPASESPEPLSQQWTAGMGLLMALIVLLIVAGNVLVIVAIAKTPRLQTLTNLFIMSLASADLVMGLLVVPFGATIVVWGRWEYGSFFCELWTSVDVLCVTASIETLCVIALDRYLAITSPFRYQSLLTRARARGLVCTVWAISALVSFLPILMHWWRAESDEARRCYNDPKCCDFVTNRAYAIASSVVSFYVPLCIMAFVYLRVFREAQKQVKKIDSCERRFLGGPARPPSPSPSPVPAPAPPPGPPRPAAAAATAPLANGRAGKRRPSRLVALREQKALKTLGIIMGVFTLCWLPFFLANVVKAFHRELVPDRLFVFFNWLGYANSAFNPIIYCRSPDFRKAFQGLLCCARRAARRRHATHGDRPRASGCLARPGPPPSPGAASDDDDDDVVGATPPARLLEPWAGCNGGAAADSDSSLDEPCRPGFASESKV

[6] = molecular target: 5-hydroxytryptamine receptor 1D (Homo sapiens) (UniProt P28221); conditions: Compound concentration 10.0 uM
Chain of 5-hydroxytryptamine receptor 1D (Homo sapiens) (P28221 whole entry): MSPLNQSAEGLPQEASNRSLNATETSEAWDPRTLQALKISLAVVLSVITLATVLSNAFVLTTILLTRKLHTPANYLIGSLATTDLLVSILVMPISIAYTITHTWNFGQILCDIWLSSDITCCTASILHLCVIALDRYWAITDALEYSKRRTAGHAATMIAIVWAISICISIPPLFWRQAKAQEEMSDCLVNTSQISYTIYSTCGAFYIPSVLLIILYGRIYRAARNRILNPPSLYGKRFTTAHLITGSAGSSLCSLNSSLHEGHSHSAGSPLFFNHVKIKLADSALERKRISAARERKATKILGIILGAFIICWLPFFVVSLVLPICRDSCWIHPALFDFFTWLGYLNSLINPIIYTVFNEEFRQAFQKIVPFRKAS

[7] = molecular target: Tyrosine-protein kinase Lyn (Homo sapiens) (UniProt P07948); assay: LYN A Invitrogen Lab (UK) kinase screen (BI); conditions: Compound concentration 1.0 uM
Chain of Tyrosine-protein kinase Lyn (Homo sapiens) (P07948 2-512 limits assumed): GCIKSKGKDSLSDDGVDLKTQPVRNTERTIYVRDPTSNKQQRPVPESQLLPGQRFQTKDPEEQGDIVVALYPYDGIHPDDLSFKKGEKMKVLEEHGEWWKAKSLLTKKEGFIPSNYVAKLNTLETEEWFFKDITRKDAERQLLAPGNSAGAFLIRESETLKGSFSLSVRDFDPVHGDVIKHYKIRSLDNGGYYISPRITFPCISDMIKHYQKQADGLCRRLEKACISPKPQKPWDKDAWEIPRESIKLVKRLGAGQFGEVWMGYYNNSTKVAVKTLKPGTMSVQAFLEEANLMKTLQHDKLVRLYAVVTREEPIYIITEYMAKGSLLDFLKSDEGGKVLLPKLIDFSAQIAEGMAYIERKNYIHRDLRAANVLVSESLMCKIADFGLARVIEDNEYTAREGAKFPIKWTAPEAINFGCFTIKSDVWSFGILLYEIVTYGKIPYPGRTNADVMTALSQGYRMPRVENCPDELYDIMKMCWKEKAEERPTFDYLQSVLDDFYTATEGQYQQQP

[8] = molecular target: Sodium-dependent serotonin transporter (Homo sapiens) (UniProt P31645); assay: SLC6A4/H Eurofins SafetyScreen44 (BI); conditions: filed as antagonist, Compound concentration 10.0 uM
[9] = molecular target: D(2) dopamine receptor (Homo sapiens) (UniProt P14416); conditions: Compound concentration 10.0 uM
Chain of D(2) dopamine receptor (Homo sapiens) (P14416 whole entry): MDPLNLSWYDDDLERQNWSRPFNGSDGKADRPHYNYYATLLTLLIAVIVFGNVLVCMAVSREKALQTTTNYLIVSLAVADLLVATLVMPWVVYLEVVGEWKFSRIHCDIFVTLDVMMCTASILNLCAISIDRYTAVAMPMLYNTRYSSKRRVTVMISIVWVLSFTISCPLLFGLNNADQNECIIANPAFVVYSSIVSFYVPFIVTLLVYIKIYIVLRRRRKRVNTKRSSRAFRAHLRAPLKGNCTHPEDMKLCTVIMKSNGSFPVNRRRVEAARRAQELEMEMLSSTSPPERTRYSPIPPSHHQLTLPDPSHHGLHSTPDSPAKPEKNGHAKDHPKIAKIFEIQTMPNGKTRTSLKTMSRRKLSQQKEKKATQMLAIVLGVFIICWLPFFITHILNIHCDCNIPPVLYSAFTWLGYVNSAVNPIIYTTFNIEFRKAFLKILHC

[10] = molecular target: 5-hydroxytryptamine receptor 2C (Homo sapiens) (UniProt P28335); conditions: Compound concentration 10.0 uM
Chain of 5-hydroxytryptamine receptor 2C (Homo sapiens) (P28335 whole entry): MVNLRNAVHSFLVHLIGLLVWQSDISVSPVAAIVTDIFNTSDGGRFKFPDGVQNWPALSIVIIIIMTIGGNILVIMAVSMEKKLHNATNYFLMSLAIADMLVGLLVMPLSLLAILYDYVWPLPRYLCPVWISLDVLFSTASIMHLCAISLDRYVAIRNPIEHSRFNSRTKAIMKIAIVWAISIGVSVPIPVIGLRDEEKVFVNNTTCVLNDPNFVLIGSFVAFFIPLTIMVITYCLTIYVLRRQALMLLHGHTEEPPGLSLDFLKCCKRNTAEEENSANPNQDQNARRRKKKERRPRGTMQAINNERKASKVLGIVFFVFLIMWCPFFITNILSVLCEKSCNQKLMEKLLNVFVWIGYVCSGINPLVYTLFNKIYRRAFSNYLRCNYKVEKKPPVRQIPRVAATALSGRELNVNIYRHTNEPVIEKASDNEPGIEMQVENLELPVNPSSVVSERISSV

[11] = molecular target: Histamine H2 receptor (Homo sapiens) (UniProt P25021); assay: H2/APT/HS Eurofins SafetyScreen44 (BI); conditions: filed as antagonist, Compound concentration 10.0 uM
[12] = molecular target: Dual specificity protein kinase CLK1 (Homo sapiens) (UniProt P49759); assay: CLK1 Invitrogen Lab (UK) kinase screen (BI); conditions: Compound concentration 1.0 uM
Chain of Dual specificity protein kinase CLK1 (Homo sapiens) (P49759 whole entry, looked up): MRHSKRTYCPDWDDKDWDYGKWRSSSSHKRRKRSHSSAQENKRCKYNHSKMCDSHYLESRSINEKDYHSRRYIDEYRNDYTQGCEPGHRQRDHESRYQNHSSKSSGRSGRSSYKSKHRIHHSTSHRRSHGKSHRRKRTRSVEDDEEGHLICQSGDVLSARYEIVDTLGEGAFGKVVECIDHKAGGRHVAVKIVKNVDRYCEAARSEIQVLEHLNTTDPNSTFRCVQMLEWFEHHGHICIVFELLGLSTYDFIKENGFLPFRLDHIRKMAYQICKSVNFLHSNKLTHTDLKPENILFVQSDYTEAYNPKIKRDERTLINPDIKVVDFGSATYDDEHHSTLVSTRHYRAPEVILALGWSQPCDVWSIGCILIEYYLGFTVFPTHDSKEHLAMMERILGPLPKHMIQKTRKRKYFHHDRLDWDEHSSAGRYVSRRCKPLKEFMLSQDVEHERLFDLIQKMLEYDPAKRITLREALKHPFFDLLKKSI

[13] = molecular target: Sodium-dependent dopamine transporter (Homo sapiens) (UniProt Q01959); conditions: Compound concentration 10.0 uM
Chain of Sodium-dependent dopamine transporter (Homo sapiens) (Q01959 whole entry): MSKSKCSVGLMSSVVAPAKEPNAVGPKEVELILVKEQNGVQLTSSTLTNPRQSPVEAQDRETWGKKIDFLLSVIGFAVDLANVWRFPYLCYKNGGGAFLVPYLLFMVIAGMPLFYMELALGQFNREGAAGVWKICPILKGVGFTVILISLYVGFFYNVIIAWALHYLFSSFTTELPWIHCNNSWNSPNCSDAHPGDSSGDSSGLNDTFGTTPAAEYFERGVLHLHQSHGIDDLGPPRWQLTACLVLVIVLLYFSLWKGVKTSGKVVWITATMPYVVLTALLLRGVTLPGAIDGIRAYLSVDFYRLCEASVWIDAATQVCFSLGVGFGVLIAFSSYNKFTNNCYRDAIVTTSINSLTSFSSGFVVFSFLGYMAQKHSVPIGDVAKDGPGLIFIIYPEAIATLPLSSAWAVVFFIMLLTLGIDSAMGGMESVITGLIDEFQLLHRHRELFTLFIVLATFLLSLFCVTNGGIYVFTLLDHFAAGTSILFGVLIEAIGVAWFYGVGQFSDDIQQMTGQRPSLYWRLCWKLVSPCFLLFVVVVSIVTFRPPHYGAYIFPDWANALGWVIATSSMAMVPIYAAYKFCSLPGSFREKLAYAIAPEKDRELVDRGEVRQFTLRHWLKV

[14] = molecular target: Ribosomal protein S6 kinase beta-1 (Homo sapiens) (UniProt P23443); assay: RPS6KB1 Invitrogen Lab (UK) kinase screen (BI); conditions: Compound concentration 1.0 uM
Chain of Ribosomal protein S6 kinase beta-1 (Homo sapiens) (P23443 whole entry, looked up): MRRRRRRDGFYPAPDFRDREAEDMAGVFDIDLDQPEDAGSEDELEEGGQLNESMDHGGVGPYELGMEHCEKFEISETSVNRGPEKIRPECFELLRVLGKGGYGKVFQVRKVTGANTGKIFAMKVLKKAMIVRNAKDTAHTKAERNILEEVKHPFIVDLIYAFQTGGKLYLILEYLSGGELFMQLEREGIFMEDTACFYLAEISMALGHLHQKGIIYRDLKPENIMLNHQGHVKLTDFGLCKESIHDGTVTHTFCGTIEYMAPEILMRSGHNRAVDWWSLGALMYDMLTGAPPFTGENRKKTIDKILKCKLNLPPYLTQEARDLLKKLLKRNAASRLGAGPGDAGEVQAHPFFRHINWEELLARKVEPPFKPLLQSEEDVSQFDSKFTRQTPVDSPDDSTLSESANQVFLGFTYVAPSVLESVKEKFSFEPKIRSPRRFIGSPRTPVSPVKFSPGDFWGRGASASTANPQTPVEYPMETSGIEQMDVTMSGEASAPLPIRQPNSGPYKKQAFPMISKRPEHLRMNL

[15] = molecular target: Beta-1 adrenergic receptor (Homo sapiens) (UniProt P08588); assay: BETA1/HUM Eurofins SafetyScreen44 (BI); conditions: Compound concentration 10.0 uM
[16] = molecular target: Platelet-derived growth factor receptor alpha (Homo sapiens) (UniProt P16234); assay: PDGFRA Invitrogen Lab (UK) kinase screen (BI); conditions: Compound concentration 1.0 uM
[17] = molecular target: GABA-A receptor; anion channel (Rattus norvegicus) (UniProt O09028+P15431+P18506+P18508+P19969+P20236+P23574+P23576+P28471+P28473+P30191+P62813+P63079+P63138+Q91ZM7+Q9ES14); assay: BZD/CENTR/R Eurofins SafetyScreen44 (BI); assay type: protein-complex assay; conditions: Compound concentration 10.0 uM

- residual activity [3]: 86%
- residual activity [4]: 95%
- inhibition [5]: -5.19%
- inhibition [6]: 13.2%
- residual activity [7]: 101%
- inhibition [9]: 1.86%
- inhibition [10]: -2.05%
- residual activity [12]: 88%
- inhibition [13]: 12.2%
- residual activity [14]: 93%
- residual activity [16]: 88%
Structure (SMILES): CNC(=O)COc1cc2cc(Nc3nc(N4CCC(C(=O)N(C)C)CC4)ncc3Cl)cc(OC)c2n(C)c1=O
- residual activity [1]: 83%
- residual activity [2]: 124%
- residual activity [8]: 105%
- residual activity [11]: 104%
- residual activity [15]: 100%
- residual activity [17]: 125%
